These results are taken from the supplement of paper PMC10307832.

Holding throughout (assay): relative viability (nuclei count vs DMSO), 5 days (fraction); higher = more cells survive
Compound in the experiment “SGI-1776 + Luminespib”: CN1CCC(CNc2ccc3ncc(-c4cccc(OC(F)(F)F)c4)n3n2)CC1 [SGI-1776] + CCNC(=O)c1noc(-c2cc(C(C)C)c(O)cc2O)c1-c1ccc(CN2CCOCC2)cc1 [Luminespib] (partner 0.01 µM)
Summed up:
(§1)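 Each reported value is a median over duplicate plates. It expresses relative viability: treated-well nuclei count divided by vehicle-well nuclei count. Lung cancer cell lines in 1536-well plates were dosed by pin tool a day after seeding, alone with one drug or with a fixed anchor-drug dose plus five library-drug doses (not always all listed) in √10 steps, and nuclei were counted after 5 days.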

Compound in the experiment “SGI-1776 + Pemetrexed”: CN1CCC(CNc2ccc3ncc(-c4cccc(OC(F)(F)F)c4)n3n2)CC1 [SGI-1776] + Nc1nc2[nH]cc(CCc3ccc(C(=O)N[C@@H](CCC(=O)O)C(=O)O)cc3)c2c(=O)[nH]1 [Pemetrexed] (partner 0.2 µM)
In outline: as §1

Compound in the experiment “Entinostat + Pemetrexed”: Nc1ccccc1NC(=O)c1ccc(CNC(=O)OCc2cccnc2)cc1 [Entinostat] + Nc1nc2[nH]cc(CCc3ccc(C(=O)N[C@@H](CCC(=O)O)C(=O)O)cc3)c2c(=O)[nH]1 [Pemetrexed] (partner 0.2 µM)
Summed up: as §1

Compound in the experiment “SGI-1776 + Palbociclib”: CN1CCC(CNc2ccc3ncc(-c4cccc(OC(F)(F)F)c4)n3n2)CC1 [SGI-1776] + CC(=O)c1c(C)c2cnc(Nc3ccc(N4CCNCC4)cn3)nc2n(C2CCCC2)c1=O [Palbociclib] (partner 0.5 µM)
In outline:
as §1

As for UMC-11, the relative viability with SGI-1776 + Luminespib (first compound 0.08 µM) is 1.02; with SGI-1776 + Luminespib (first compound 0.8 µM) it was 0.971; in the experiment with SGI-1776 + Luminespib (first compound 2.53 µM) it was 0.899; with SGI-1776 + Luminespib (first compound 8 µM) it was 0.862; in the experiment with SGI-1776 + Pemetrexed (first compound 0.08 µM), 0.828; in the experiment with SGI-1776 + Pemetrexed (first compound 0.8 µM) it was 0.864. Besides, the relative viability came to 0.699 with SGI-1776 + Pemetrexed (first compound 2.53 µM); 0.558 with SGI-1776 + Pemetrexed (first compound 8 µM); 0.733 in the experiment with Entinostat + Pemetrexed (first compound 0.02 µM); 0.738 in the experiment with Entinostat + Pemetrexed (first compound 0.06325 µM); 0.5 in the experiment with Entinostat + Pemetrexed (first compound 0.2 µM); 0.346 in the experiment with Entinostat + Pemetrexed (first compound 0.6325 µM). Further, the relative viability was found to be 0.145 with Entinostat + Pemetrexed (first compound 2 µM); 0.366 with SGI-1776 + Palbociclib (first compound 0.08 µM); 0.338 with SGI-1776 + Palbociclib (first compound 0.8 µM); 0.378 in the experiment with SGI-1776 + Palbociclib (first compound 2.53 µM); 0.312 in the experiment with SGI-1776 + Palbociclib (first compound 8 µM).
